Literature values in publication PMC6545338, “Novel chemical starting points for drug discovery in leishmaniasis and Chagas disease” (International Journal for Parasitology: Drugs and Drug …, 2019).

Test system: T. cruzi
Parameters: method as in Morillo et al., 2017a
Details: ref Morillo et al., 2017a; for Efficacy in the STOP-CHAGAS trial: patients

O=C(Cn1ccnc1[N+](=O)[O-])NCc1ccccc1 [benznidazole]
Patients who had to permanently discontinue treatment due to side effects (benznidazole-treated group): 32%
Efficacy in the STOP-CHAGAS trial: 62%

CC[C@@H]([C@H](C)O)n1ncn(-c2ccc(N3CCN(c4ccc(OC[C@@H]5CO[C@@](Cn6cncn6)(c6ccc(F)cc6F)C5)cc4)CC3)cc2)c1=O [posaconazole]
Efficacy in the STOP-CHAGAS trial: 19%
